Four compounds from patent US20120264928A1, “THERAPEUTIC PHARMACEUTICAL AGENT FOR DISEASES ASSOCIATED WITH DECREASE IN FUNCTION OF GNE PROTEIN, FOOD COMPOSITION, AND FOOD ADDITIVE” (JAPAN HEALTH SCIENCES FOUNDATION, priority 2009, published 2012) can be followed below.

What all share (assay type): in vivo
The subject of assay [1] is DMRV model mice. Put plainly: Pathological observation of muscle tissue. On the procedure: (§1) 20 mg/kg body weight/day of ManNAc (N=6), NeuAc (N=5), or sialyllactose (N=7) dissolved in drinking water was administered to the DMRV model mice between 11- to 15-week old and 56- to 58-week old for 43 to 45 weeks. 40 mg (N=5) or 400 mg/kg body weight/day (N=4) of Ac4ManNAc dissolved in drinking water was administered to the DMRV model mice of the same ages for 43 to 47 weeks. Drinking water free of the pharmaceutical agents was supplied to mice in a placebo group.
(§2) During the administration of the pharmaceutical agent, the measurement of the body weight, the determination of the survival rate, blood collection (0, 25, and 49 days after the start of administration, and thereafter at intervals of 28 days), and a hanging test (0 and 49 days after the start of administration, and thereafter at intervals of 56 days) were performed at regular intervals. Survivors after the administration (ManNAc-treated group: N=5, NeuAc-treated group: N=5, sialyllactose group: N=6) were subjected to a treadmill test. A muscle tissue was then excised and was subjected to a muscle contraction test, the measurement of the amount of NeuAc, and pathological observation.
The gastrocnemius muscle used in the muscle contraction test was frozen in isopentane cooled by liquid nitrogen, and a frozen section having a thickness of 6 μm was prepared with a cryostat. The section was placed on a slide glass. Hematoxylin-eosin (H-E) staining, acid phosphatase activity staining (see Malicdan et al., Method. Enzymol., 453, 379-396, 2009), or Gomori trichrome staining (see Malicdan et al., Method. Enzymol., 453, 379-396, 2009) were performed on adjacent sections. These sections were observed under an optical microscope. A frozen section having a thickness of 10 μm prepared in the same manner as described above was fixed with 4% paraformaldehyde, was stained with congo red, and was observed under a fluorescence microscope.
A frozen section having a thickness of 6 μm prepared in the same manner as described above was fixed with acetone and was blocked with a blocking solution (PBS containing 5% goat normal sera or 2% casein). The section was incubated with an anti-autophagy marker protein LC3 rabbit polyclonal antibody (NB100-2220, Novus Biologicals, 100 times dilution), an anti-β-amyloid rabbit polyclonal antibody (Aβ1-40, AB5074P, Chemicon, 100 times dilution), an anti-β-amyloid rabbit polyclonal antibody (Aβ1-42, AB5078P, Chemicon, 100 times dilution), an anti-phosphorylated tau mouse monoclonal antibody (90206, Innogenetics, 100 times dilution), an anti-amyloid mouse monoclonal antibody (6E10, Covance, 400 times dilution), an anti-p62 protein rabbit polyclonal antibody (PW9860, Biomol, 500 times dilution), or an anti-lysosome-associated membrane protein 2 (Lamp 2) rabbit polyclonal antibody (ABL-93, obtained from Developmental Studies Hybridoma Bank at the University of Iowa, 100 times dilution) at room temperature for one hour. If necessary, Alexa Fluor 488 or 568 labeled anti-rabbit/mouse IgG(H+L) (Molecular Probes) was used as a secondary antibody. Immunostained preparations of these sections were observed under a fluorescence microscope. The congo red staining and the LC3 labeling were performed on adjacent sections.
It is known that rimmed vacuoles found in muscle tissues of a patient suffering from myopathy are positive for acid phosphatase. […] Tau protein is phosphorylated with amyloid β-protein. In myopathy caused by a mutation of the GNE gene, it is known that lysosomal vesicles that contain localized Lamp 2 protein are accumulated. It is also known that p62 protein recognizes polyubiquitin protein and directly binds to LC3 to induce autophagy in a portion that contains accumulated polyubiquitinated protein. In a muscle tissue affected by myopathy, p62 protein is colocalized with amyloid.

In assay [2] the test system is DMRV model mice. Description: Treadmill test, motor ability test. Conditions: vs placebo group. On the procedure: as §1, §2
In order to familiarize a mouse with the apparatus, training was started one week prior to testing. In this period, the mouse was made to run on a slope of 7 degrees at a velocity in the range of 5 to 15 m/min for 30 minutes every day for 7 days. As a motor ability test, the velocity was increased by 10 m/min per minute from the initial velocity of 20 m/min. The accumulated running distance up to the point where the mouse could not run anymore was measured. As an endurance test, a mouse was made to run on a slope of 7 degrees at a velocity of 20 m/min for 60 minutes. The mouse was then made to run for another 3 minutes, during which the times of the electrical stimulation given to the mouse by a stimulation grid disposed at the end of the running lane were measured.

The test system of assay [3] is DMRV model mice. Put plainly: Survival rate of treated DMRV model mice. Conditions: vs placebo group. On the procedure: DMRV model mice were GNE^(−/−)hGNED176V-Tg described in Japanese Unexamined Patent Application Publication No. 2007-312641. Healthy litters having no GNE gene mutation were used as controls. The mice in the present example freely take water and feed and ingest 14 mg/kg body weight/day of N-acetylneuraminic acid compound on average.
as §1, §2

Assay [4] deals with DMRV model mice. Put plainly: Number of formed rimmed vacuoles and amyloid-positive cells. The settings on record: 20 mg/kg body weight/day in drinking water; vs placebo group. The method, then:
as §1, §2
In six H-E stained pathological sections having a thickness of 10 μm prepared at intervals of 100 μm, the number of rimmed vacuoles observed over the cross section of the muscular tissue was counted. In order to count the number of amyloid-positive protein deposits, the number of cells having deposits labeled with an anti-amyloid antibody (6E10) observed over the cross section of the muscular tissue was counted in six sections having a thickness of 10 μm prepared at intervals of 100 μm.

The test system of assay [5] is DMRV model mice. Put plainly: Hanging test. Conditions: 20 mg/kg body weight/day in drinking water; vs placebo group. On the procedure: as §1, §2
A wire net having a 6-mm lattice pattern made of wires having a diameter of approximately 0.5 mm was placed on a tube having a height of 50 cm. A mouse was made to hang on the wire net, and the time elapsed before the mouse fell down was measured. The time was measured three times for each mouse.

Setting [6] is: 20 mg/kg body weight/day in drinking water.
Setting [7] is: 20 mg/kg body weight/day in drinking water, vs placebo group.
Where [8] appears, read: 20 mg/kg body weight/day in drinking water, 43 to 45 weeks.

As for `CC(=O)N[C@H]1[C@H]([C@H](O)[C@H](O)CO)OC(O)(C(=O)O)C[C@@H]1O` (stereo partly drawn) [NeuAc, N-acetylneuraminic acid], in the assay on DMRV model mice [1] (setting [6]), the “acid phosphatase activity staining” value is on record as “negative”; the “congo red staining (amyloid)” value is “only the placebo group was fluorescently labeled”; the “labeling with the anti-phosphorylated tau antibody” value is recorded as “Only the placebo group was also labeled”; the “rimmed vacuoles and muscle cell atrophy (H-E staining)” value is on record as “no rimmed vacuole or muscle cell atrophy”. Besides, the “labeling with the anti-amyloid antibodies (LC3, Aβ1-40, and Aβ1-42)” value (from here on “labeling … (LC3, Aβ1-40, and Aβ1-42)”) with DMRV model mice [1] (setting [7]) is “markedly reduced”. Moreover, in the assay on DMRV model mice [2] (setting [6]), the accumulated running distance entry is recorded as “significantly higher”. Besides, in the assay with DMRV model mice [3] (setting [8]), the survival rate result is listed as “significantly higher”. In addition, in the assay on DMRV model mice [4], the “number of amyloid positive cells” value is given as “significantly lower” and the “number of rimmed vacuoles” value is given as “significantly lower”. Moreover, the hanging time entry in the assay with DMRV model mice [5] is reported as “longer”.

In the case of `CC(=O)N[C@H]1[C@H]([C@H](O)[C@H](O)CO)O[C@@](O[C@H]2[C@@H](O)[C@@H](CO)O[C@@H](O[C@H]3[C@H](O)[C@@H](O)C(O)O[C@@H]3CO)[C@@H]2O)(C(=O)O)C[C@@H]1O` (stereo partly drawn) [sialyllactose, NeuAcα2-3Galβ1-4Glc], in the assay with DMRV model mice [1] (setting [6]), the “acid phosphatase activity staining” value is “negative”; the “congo red staining (amyloid)” value is “only the placebo group was fluorescently labeled”; the “labeling with the anti-phosphorylated tau antibody” value is recorded as “Only the placebo group was also labeled”; the “rimmed vacuoles and muscle cell atrophy (H-E staining)” value is “no rimmed vacuole or muscle cell atrophy”. In addition, the “labeling … (LC3, Aβ1-40, and Aβ1-42)” value in the assay with DMRV model mice [1] (setting [7]) is recorded as “markedly reduced”. Also, in the assay on DMRV model mice [2] (setting [6]), the accumulated running distance entry is given as “significantly higher”. Also, the survival rate entry with DMRV model mice [3] (setting [8]) is given as “significantly higher”. In the assay on DMRV model mice [4], the “number of amyloid positive cells” value is recorded as “significantly lower” and the “number of rimmed vacuoles” value is reported as “significantly lower”. Besides, in the assay with DMRV model mice [5], the hanging time result is reported as “longer”.

Turning to `CC(=O)N[C@@H]1C(O)O[C@H](CO)[C@@H](O)[C@@H]1O` (stereo partly drawn) [ManNAc, N-acetylmannosamine, reference compound], in the assay with DMRV model mice [1] (setting [6]), the “acid phosphatase activity staining” value is “negative”; the “congo red staining (amyloid)” value was “only the placebo group was fluorescently labeled”; the “labeling with the anti-phosphorylated tau antibody” value is given as “Only the placebo group was also labeled”; the “rimmed vacuoles and muscle cell atrophy (H-E staining)” value is given as “no rimmed vacuole or muscle cell atrophy”. For the same compound, the “labeling … (LC3, Aβ1-40, and Aβ1-42)” value in the assay on DMRV model mice [1] (setting [7]) is “markedly reduced”. The accumulated running distance entry with DMRV model mice [2] (setting [6]) is “significantly higher”. For the same compound, in the assay on DMRV model mice [3] (setting [8]), the survival rate result is “significantly higher”. In addition, in the assay on DMRV model mice [4], the “number of amyloid positive cells” value was “significantly lower” and the “number of rimmed vacuoles” value is recorded as “significantly lower”. The hanging time entry with DMRV model mice [5] is given as “longer”.

Take `CC(=O)N[C@@H]1C(OC(C)=O)O[C@H](COC(C)=O)[C@@H](OC(C)=O)[C@@H]1OC(C)=O` (stereo partly drawn) [Ac4ManNAc, Tetra-O-acetyl-N-acetylmannosamine]: in the assay with DMRV model mice [1] (40 mg/kg), the Aβ1-42 labeling result was “negative”, the “Lamp 2 staining” value is “very slightly stained”, the “acid phosphatase activity staining” value is recorded as “dispersed sites that were positive” and the p62 protein labeling result was “negative”. For the same compound, in the assay on DMRV model mice [1] (40 mg/kg, vs placebo group), the “frequencies of rimmed vacuoles and muscular atrophy” value is “much lower”. In addition, in the assay on DMRV model mice [1] (400 mg/kg), the Aβ1-42 labeling result is “negative”, the “Lamp 2 staining” value is listed as “negative”, the “acid phosphatase activity staining” value is listed as “negative” and the p62 protein labeling result is given as “negative”. In addition, in the assay with DMRV model mice [1] (400 mg/kg), the “rimmed vacuoles and muscle cell atrophy” value is listed as “no rimmed vacuole or muscle cell atrophy”. Moreover, the accumulated running distance entry in the assay with DMRV model mice [2] (400 mg/kg) is listed as “significantly higher”. Besides, in the assay on DMRV model mice [3] (40 or 400 mg/kg body weight/day in drinking water, 43 to 47 weeks), the survival rate entry is “higher”.
